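Cells were grown in 96-well plates and exposed to each compound for 48 hours at five concentrations; endpoints were interpolated linearly between bracketing concentrations, or set to the highest concentration if not reached. TGI denotes the concentration required for complete inhibition of growth.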
Legend:
Test in all cases: NCI-60 cell line screen, 48 h
A498 renal = test system: A498 renal
A549 NSCLC = test system: A549 NSCLC
ACHN renal = test system: ACHN renal
CAKI-1 renal = test system: CAKI-1 renal
CCRF-CEM leukemia = test system: CCRF-CEM leukemia
COLO 205 colon = test system: COLO 205 colon
DLD-1 colon = test system: DLD-1 colon
DMS 114 small cell lung = test system: DMS 114 small cell lung
DMS 273 small cell lung = test system: DMS 273 small cell lung
EKVX NSCLC = test system: EKVX NSCLC
HCC-2998 colon = test system: HCC-2998 colon
HCT-116 colon = test system: HCT-116 colon
HCT-15 colon = test system: HCT-15 colon
HL-60(TB) leukemia = test system: HL-60(TB) leukemia
HOP-62 NSCLC = test system: HOP-62 NSCLC
HOP-92 NSCLC = test system: HOP-92 NSCLC
HT29 colon = test system: HT29 colon
IGROV1 ovarian = test system: IGROV1 ovarian
K-562 leukemia = test system: K-562 leukemia
KM12 colon = test system: KM12 colon
KM20L2 colon = test system: KM20L2 colon
LXFL 529 NSCLC = test system: LXFL 529 NSCLC
M14 melanoma = test system: M14 melanoma
M19-MEL melanoma = test system: M19-MEL melanoma
MALME-3M melanoma = test system: MALME-3M melanoma
MOLT-4 leukemia = test system: MOLT-4 leukemia
NCI-H226 lung = test system: NCI-H226 lung
NCI-H23 lung = test system: NCI-H23 lung
NCI-H460 lung = test system: NCI-H460 lung
NCI-H522 lung = test system: NCI-H522 lung
OVCAR-3 ovarian = test system: OVCAR-3 ovarian
OVCAR-4 ovarian = test system: OVCAR-4 ovarian
OVCAR-5 ovarian = test system: OVCAR-5 ovarian
OVCAR-8 ovarian = test system: OVCAR-8 ovarian
RPMI-8226 leukemia = test system: RPMI-8226 leukemia
RXF 393 renal = test system: RXF 393 renal
SF-268 CNS = test system: SF-268 CNS
SF-295 CNS = test system: SF-295 CNS
SF-539 CNS = test system: SF-539 CNS
SK-MEL-2 melanoma = test system: SK-MEL-2 melanoma
SK-MEL-28 melanoma = test system: SK-MEL-28 melanoma
SK-MEL-5 melanoma = test system: SK-MEL-5 melanoma
SK-OV-3 ovarian = test system: SK-OV-3 ovarian
SN12C renal = test system: SN12C renal
SNB-19 CNS = test system: SNB-19 CNS
SNB-75 CNS = test system: SNB-75 CNS
SR leukemia = test system: SR leukemia
SW-620 colon = test system: SW-620 colon
TK-10 renal = test system: TK-10 renal
U251 CNS = test system: U251 CNS
UACC-257 melanoma = test system: UACC-257 melanoma
UACC-62 melanoma = test system: UACC-62 melanoma
UO-31 renal = test system: UO-31 renal
XF 498 CNS = test system: XF 498 CNS
786-0 renal = test system: 786-0 renal
SNB-78 CNS = test system: SNB-78 CNS

Measured: TGI

CC(C)OP(=O)(OC(C)C)c1ncn(-c2ccc([N+](=O)[O-])cc2)n1
not listed: 786-0 renal | SNB-78 CNS
> 100 µM: all other assays above

CC(C)(C)C(=O)Cc1cc2c(cc1C(=O)O)S(=O)(=O)NC(C(C)(C)C)=C2
not listed: DMS 273 small cell lung | HCC-2998 colon | HCT-15 colon | IGROV1 ovarian | KM20L2 colon | RXF 393 renal | SF-539 CNS | SK-MEL-5 melanoma | XF 498 CNS
> 100 µM: all other assays above
